#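 In this assay, cells in 96-well plates receive the compound at five concentrations for 48 hours. Endpoints are linearly interpolated between the surrounding concentrations. Abbreviation: GI50, concentration required for 50% inhibition of growth.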 Calls of active or inactive are those of the source. No stated cut-off is given here; in the data, active = GI50 up to about 1.1 µM and inactive = higher.
# Key:
# Assay in all cases: inhibition of tumour cell growth, NCI panel, 48 h
# 786-0 = test system: 786-0
# A549 = test system: A549
# CAKI-1 = test system: CAKI-1
# CCRF-CEM = test system: CCRF-CEM
# HOP-92 = test system: HOP-92
# IGROV-1 = test system: IGROV-1
# KM12 = test system: KM12
# NCI-H23 = test system: NCI-H23
# OVCAR-4 = test system: OVCAR-4
# RPMI-8226 = test system: RPMI-8226
# SF-268 = test system: SF-268
# SNB-75 = test system: SNB-75
# SR = test system: SR
# UACC-257 = test system: UACC-257
# UACC-62 = test system: UACC-62
# NCI-H226 = test system: NCI-H226
# UO-31 = test system: UO-31
Compound,GI50 (786-0),GI50 (A549),GI50 (CAKI-1),GI50 (CCRF-CEM),GI50 (HOP-92),GI50 (IGROV-1),GI50 (KM12),GI50 (NCI-H23),GI50 (OVCAR-4),GI50 (RPMI-8226),GI50 (SF-268),GI50 (SNB-75),GI50 (SR),GI50 (UACC-257),GI50 (UACC-62),GI50 (NCI-H226),GI50 (UO-31)
COC(=O)c1cc2ccccc2c2nc3ccccc3c(Cl)c12,> 100 µM (inactive),> 100 µM (inactive),> 100 µM (inactive),> 100 µM (inactive),> 100 µM (inactive),> 100 µM (inactive),> 100 µM (inactive),> 100 µM (inactive),> 100 µM (inactive),> 100 µM (inactive),> 100 µM (inactive),98.4 µM (inactive),51.8 µM (inactive),> 100 µM (inactive),> 100 µM (inactive),,
Cc1ccc(NC(=O)CCc2cc(C(C)(C)C)nc(S)n2)cc1C,> 100 µM (inactive),> 100 µM (inactive),> 100 µM (inactive),> 100 µM (inactive),> 100 µM (inactive),> 100 µM (inactive),> 100 µM (inactive),> 100 µM (inactive),,> 100 µM (inactive),> 100 µM (inactive),> 100 µM (inactive),> 100 µM (inactive),> 100 µM (inactive),> 100 µM (inactive),> 100 µM (inactive),> 100 µM (inactive)
Cc1ccc2c(c1)c(=O)c1c(NCCN(C)C)ccc3nnn2c31,3.35 µM (inactive),2.83 µM (inactive),2.02 µM (inactive),2.21 µM (inactive),2.36 µM (inactive),4.33 µM (inactive),2.45 µM (inactive),3.6 µM (inactive),3.6 µM (inactive),2.36 µM (inactive),4.24 µM (inactive),4.6 µM (inactive),1.22 µM (inactive),3.6 µM (inactive),6.44 µM (inactive),3.02 µM (inactive),3.56 µM (inactive)
COc1ccc2c(c1)Cc1c-2[nH]c2cc3c(cc2c1=O)OCO3,20.2 µM (inactive),7.31 µM (inactive),32.1 µM (inactive),4.33 µM (inactive),17.7 µM (inactive),16.9 µM (inactive),9.48 µM (inactive),16.3 µM (inactive),25.4 µM (inactive),6.11 µM (inactive),18.7 µM (inactive),,,,10.4 µM (inactive),29.9 µM (inactive),15.8 µM (inactive)
COc1ccc(CNc2nc3ccc(C(F)(F)F)cc3nc2-c2ccccc2)cc1OC,> 10 µM (inactive),31.3 µM (inactive),,9.91 µM (inactive),2.9 µM (inactive),,,78.7 µM (inactive),,35.9 µM (inactive),63.2 µM (inactive),11 µM (inactive),6.64 µM (inactive),25.2 µM (inactive),30.1 µM (inactive),> 100 µM (inactive),47.6 µM (inactive)
C[N+](C)(C)CC1CCCCC1=O (stereo not given),> 100 µM (inactive),> 100 µM (inactive),,4.56 µM (inactive),,> 100 µM (inactive),58.2 µM (inactive),22.5 µM (inactive),,9.06 µM (inactive),,20.5 µM (inactive),,14.3 µM (inactive),18.9 µM (inactive),> 100 µM (inactive),> 100 µM (inactive)
Cc1cc(NCCCCCCNc2cc(C)nc3cc(N(C)C)ccc23)c2ccc(N(C)C)cc2n1,52.4 µM (inactive),> 10 µM (inactive),55.8 µM (inactive),22.3 µM (inactive),,,11.8 µM (inactive),25.1 µM (inactive),22.6 µM (inactive),,57.9 µM (inactive),10 µM (inactive),11 µM (inactive),31.6 µM (inactive),9.2 µM (inactive),,88.7 µM (inactive)
[O-]c1c2c(nn1-c1ccccc1)c1ccccc1c[n+]2Cc1ccccc1,> 100 µM (inactive),> 100 µM (inactive),,> 100 µM (inactive),> 100 µM (inactive),> 100 µM (inactive),> 100 µM (inactive),> 100 µM (inactive),78 µM (inactive),> 100 µM (inactive),47.1 µM (inactive),50.4 µM (inactive),> 100 µM (inactive),> 100 µM (inactive),> 100 µM (inactive),> 100 µM (inactive),> 100 µM (inactive)
CSC(C1c2ccccc2N(c2ccc(C)cc2)c2[nH]c(=O)n(C)c(=O)c21)S(=O)(=O)c1ccc(C)cc1 (stereo not given),> 100 µM (inactive),> 100 µM (inactive),> 100 µM (inactive),71.6 µM (inactive),> 100 µM (inactive),> 100 µM (inactive),,> 100 µM (inactive),97.7 µM (inactive),97.1 µM (inactive),> 100 µM (inactive),> 100 µM (inactive),,> 100 µM (inactive),> 100 µM (inactive),> 100 µM (inactive),> 100 µM (inactive)
O=C1C(Cl)C(c2cccc([N+](=O)[O-])c2)N1n1cnc2ccccc2c1=O (stereo not given),> 100 µM (inactive),> 100 µM (inactive),91.2 µM (inactive),> 10 µM (inactive),,> 100 µM (inactive),> 100 µM (inactive),> 100 µM (inactive),54.6 µM (inactive),42.3 µM (inactive),> 100 µM (inactive),65.8 µM (inactive),19.1 µM (inactive),55.2 µM (inactive),> 100 µM (inactive),> 100 µM (inactive),14.7 µM (inactive)
Nc1ccn(CCO)c(=O)n1,> 100 µM (inactive),> 100 µM (inactive),> 100 µM (inactive),> 100 µM (inactive),> 100 µM (inactive),> 100 µM (inactive),> 100 µM (inactive),,> 100 µM (inactive),> 100 µM (inactive),> 100 µM (inactive),> 100 µM (inactive),> 100 µM (inactive),> 100 µM (inactive),> 100 µM (inactive),> 100 µM (inactive),> 100 µM (inactive)
O=C(/C=C/c1ccccc1)CC(=O)CCC(=O)Nc1ccc(Cl)cc1,> 100 µM (inactive),> 100 µM (inactive),57.8 µM (inactive),> 100 µM (inactive),,86.1 µM (inactive),44.4 µM (inactive),> 100 µM (inactive),> 100 µM (inactive),> 100 µM (inactive),60.3 µM (inactive),,,77.3 µM (inactive),2.69 µM (inactive),> 100 µM (inactive),94 µM (inactive)
CC(=O)Nc1ccc(C(=O)NN2C(=O)C(Cl)C2c2ccccc2)cc1 (stereo not given),> 100 µM (inactive),> 100 µM (inactive),> 100 µM (inactive),> 100 µM (inactive),> 100 µM (inactive),> 100 µM (inactive),,> 100 µM (inactive),> 100 µM (inactive),,> 100 µM (inactive),> 100 µM (inactive),,> 100 µM (inactive),> 100 µM (inactive),> 100 µM (inactive),> 100 µM (inactive)
C[C@@]12[Se]c3ccccc3[C@]1(C)[Se]c1ccccc12,4.85 µM (inactive),,> 100 µM (inactive),4.39 µM (inactive),4.79 µM (inactive),,6.95 µM (inactive),> 100 µM (inactive),68.2 µM (inactive),8.85 µM (inactive),> 100 µM (inactive),2.57 µM (inactive),,,2.23 µM (inactive),> 100 µM (inactive),
CCC(C)(O)c1cn(-c2ccc(S(=O)(=O)O)cc2)nn1 (stereo not given),> 100 µM (inactive),> 100 µM (inactive),> 100 µM (inactive),> 100 µM (inactive),> 100 µM (inactive),> 100 µM (inactive),> 100 µM (inactive),> 100 µM (inactive),> 100 µM (inactive),> 100 µM (inactive),> 100 µM (inactive),> 100 µM (inactive),,> 100 µM (inactive),> 100 µM (inactive),> 100 µM (inactive),> 100 µM (inactive)
CC1=CC[C@@H](C(C)(C)O)C[C@@H]1O,> 5000 µM (inactive),> 5000 µM (inactive),,> 5000 µM (inactive),> 5000 µM (inactive),> 5000 µM (inactive),> 5000 µM (inactive),> 5000 µM (inactive),> 5000 µM (inactive),,> 5000 µM (inactive),> 5000 µM (inactive),> 5000 µM (inactive),> 5000 µM (inactive),> 5000 µM (inactive),> 5000 µM (inactive),> 5000 µM (inactive)
CC(=O)C1=C(O)C2C3c4c[nH]c5cccc(c45)CC3C(C)(C)N2C1=O (stereo not given),19.3 µM (inactive),28.7 µM (inactive),> 100 µM (inactive),27.2 µM (inactive),> 100 µM (inactive),> 100 µM (inactive),40.5 µM (inactive),11.6 µM (inactive),> 100 µM (inactive),4.85 µM (inactive),27.4 µM (inactive),,,62.2 µM (inactive),44.1 µM (inactive),17.3 µM (inactive),25.6 µM (inactive)
CN(C)CCNC(=O)c1cccc2c(Nc3ccc(S(N)(=O)=O)cc3)c3ccccc3nc12,1.09 µM (active),1.79 µM (inactive),3.25 µM (inactive),,1.32 µM (inactive),2.18 µM (inactive),1.72 µM (inactive),1.73 µM (inactive),1.7 µM (inactive),7.08 µM (inactive),0.746 µM (active),1.26 µM (inactive),0.0551 µM (active),2.96 µM (inactive),1.42 µM (inactive),1.05 µM (active),1.87 µM (inactive)

# Source: ChEMBL document CHEMBL1201862, “PubChem BioAssay data set” (2004)
